Patent US20200216906A1, “METHODS AND COMPOSITIONS RELATING TO THE DIAGNOSIS AND TREATMENT OF CANCER” (PRESIDENT AND FELLOWS OF HARVARD COLLEGE, priority 2015, published 2020)
“Also recorded” adds a separate entry of the source. Read-outs that look alike come from different tables or passages of the source.

Experiments:
[1] = tested on: Panc02.13 cells expressing vector only (02.13-WT); experiment: Kinetic cell growth assay, Panc02.13 cells expressing vector only; format: cell-based, human
Procedure: (§1) Panc02.13 cells were used to express YAPS6A (or vector controls) under sparse and dense cultures. Expression was confirmed by confocal microscopy (data not shown). Suppression of the Hippo pathway by expression of non-phospho, active form of YAP (YAPS6A) sensitized pancreatic cancer cells to gemcitabine and 5-FU (FIGS. 6 and 7). Apoptosis was measured by immunobloting with cleaved caspases 3/7 or PARP. Blots were also stained with anti-β-actin for loading control. The effect of Hippo pathway suppression on gemcitabine and 5-FU senstitization was maintained in 3D spheroid culture (FIG. 8). The effects of eleven cytotoxic drugs on the growth of Panc02.13 cells expressing vector only or YAPS6A construct grown under low or high densities were determined (Table 1).
(§2) The effect of gemcitabine on pancreatic cancer cell growth was studied using a kinetic cell growth assay. Pancreatic cancer cells were plated on 96-well plates (Essen ImageLock, Essen Instruments, MI, US) at varying densities (2-4×10^3 for low density or 15-20×10^3 for high density experiments). Small molecule inhibitors at different doses were added 24 hours after plating and cell confluence was monitored with Incucyte Live-Cell Imaging System and software (Essen Instruments). Confluence was observed every hour for 48-144h or until the control (DMSO only) samples reached 100% confluence.
as §2, with “Kinetic Cell growth assay. The” for “The”, “(2-4X103” for “(2-4×10^3”, “15-20X103” for “15-20×10^3”, “Incucyte™” for “Incucyte”

[2] = tested on: Panc02.13 cells expressing YAPS6A construct; experiment: Kinetic cell growth assay, Panc02.13 cells expressing YAPS6A; format: cell-based, human; conditions: YAPS6A construct
Procedure: as §1, §2
Cell lines (Panc02.13, Panc10.05 or Miapaca2) were transfected with YAPS6A constructs (Addgene) using Lipofectamine™ (Invitrogen, Carlsbad, Calif.) following the manufacturer's instructions and 48 hour post-transfection selected in 5-10 μg/ml Blasticidin (InvivoGen, San Diego, Calif.). The clones screened for YAPS6A expression by Western blot. Stable cell lines were maintained in complete medium and 5 μg/ml Blasticidin.
as §2, with “Kinetic Cell growth assay. The” for “The”, “(2-4X103” for “(2-4×10^3”, “15-20X103” for “15-20×10^3”, “Incucyte™” for “Incucyte”

[3] = tested on: patient-derived xenograft (PDX) models; experiment: Patient-derived xenograft (PDX) models, tumor growth inhibition; format: in vivo, mouse; conditions: PDX models
Source text: An alternative to an endogenous mouse models for capturing effects of the tumor environment are patient-derived xenograft (PDX) models. […] At the cellular level, PDX models also preserve the intra-tumoral heterogeneity, as well as the molecular characteristics of the original cancer, including copy number variants, single-nucleotide polymorphisms, and gene expression profiles (Choi et al., 2014; DeRose et al., 2011). […] When patient-derived xenograft PDX models were used to assess whether YAP activation sensitizes solid tumors to gemcitabine significant effects were found. The studies were performed in the following manner: Tumor fragments (around 64 mm^3) were implanted into the flanks of recipient mice and tumor dimensions recorded with digital calipers. Once tumor implants reached a volume of approximately 200 mm3, dosing with gemcitabine (or vehicle control) began. At the completion of the study completion, the percent tumor growth inhibition (% TGI) was calculated for gemcitabine (G) and the vehicle control (C) using initial (i) and final (f) tumor measurements by the formula: % TGI=[1−(Gf−Gi)/(Cf−Ci)]x100.
Patient-derived xenograft (PDX) models. PDX models were established by Champions Oncology (Baltimore, Md.) as described previously (Khor et al., 2015). Drug response to 20 PDX models was obtained from Champions TumorGraft® Database (available on the world wide web at database.championsoncology.com/).
Immunohistochemistry. Human primary tumor tissue slides were obtained from Champions Oncology (Baltimore, Md.). Immunohistochemistry using anti YAP1 antibody (Abcam Cat # ab52771) was performed as previously described (Shi et al., 1999). For negative controls, primary antibody was omitted. The intensity of YAP staining was assessed by an independent pathologist using a four-grade scale: “0” is negative. “0.5” is borderline staining with no significance. “1” is weak staining. “1.5” is weak staining with foci of moderate staining. “2” is moderate staining. […] YAP scoring index was calculated based on staining intensity * % of positive target cells.

[4] = tested on: Panc02.13 cells expressing the YAPS6A mutant; experiment: 3D spheroid growth assay, Panc02.13 cells expressing YAPS6A; format: cell-based, human; conditions: YAP activity increased
ABCG2 = target: T1, ABCG2 (Homo sapiens, UniProt Q9UNQ0); conditions: Cusatis and Sparreboom, 2008; cited from earlier work
T1 sequence (Q9UNQ0 1-655): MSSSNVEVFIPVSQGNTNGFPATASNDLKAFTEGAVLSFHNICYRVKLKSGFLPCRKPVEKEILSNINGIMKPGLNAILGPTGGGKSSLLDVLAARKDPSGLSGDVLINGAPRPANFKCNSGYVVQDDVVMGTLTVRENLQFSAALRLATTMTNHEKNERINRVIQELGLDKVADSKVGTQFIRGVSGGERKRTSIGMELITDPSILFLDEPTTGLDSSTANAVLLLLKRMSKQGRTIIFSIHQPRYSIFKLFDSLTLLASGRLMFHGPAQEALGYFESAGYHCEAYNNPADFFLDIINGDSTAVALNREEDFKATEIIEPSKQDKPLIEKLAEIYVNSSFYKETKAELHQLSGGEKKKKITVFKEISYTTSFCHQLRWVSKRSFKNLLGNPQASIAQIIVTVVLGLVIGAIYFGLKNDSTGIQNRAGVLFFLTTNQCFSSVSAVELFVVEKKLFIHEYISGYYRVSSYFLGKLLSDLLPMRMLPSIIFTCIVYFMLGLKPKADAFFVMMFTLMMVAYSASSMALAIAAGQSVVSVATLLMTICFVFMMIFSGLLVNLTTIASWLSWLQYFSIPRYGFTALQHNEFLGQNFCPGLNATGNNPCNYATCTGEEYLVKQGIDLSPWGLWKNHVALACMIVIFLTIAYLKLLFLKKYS

Panc02.13 cells = experiment: 3D spheroid growth assay, Panc02.13 (GFP/parental) cells; conditions: Hippo-YAP pathway active
Procedure: Cancer cell lines were seeded at a 5×10^3 cells per well in a 96-well ultra-low adherence plates (Costar) and briefly spun down at 1000 rpm for 5 minutes. After 2 days, cells were treated with small molecule inhibitors at varying concentrations. Growth of spheroids was monitored using live cell imaging every 2-3 hours for 4-7 days in the Incucyte FLR™ system (Essen) or as end point assay using CellTiter-Glo™ luminescent cell viability assay (Promega).
A dose response curve for each inhibitor is calculated based on control (no inhibitor/DMSO) treated wells.
Cancer cell lines were seeded at a 5×10^3 cells per well in a 96-well ultra-low adherence plates (Costar) and briefly spun down at 1000 rpm for 5 minutes. After 2 days, cells were treated with small molecule inhibitors at varying concentrations. Growth of spheroids was monitored using live cell imaging every 2-3 hours for 4-7 days in the Incucyte ZOOM™ system (Essen) or as end point assay using CellTiter-Glo™ luminescent cell viability assay (Promega).

[5] = tested on: pancreatic cancer cell lines; experiment: Kinetic cell growth assay, panel of pancreatic cancer cell lines; format: cell-based, human
Procedure: as §2
FIG. 20A illustrates the kinetic cell growth assay to determine the effect of gemcitabine in a panel of pancreatic cancer cell lines. Cells are plated at low crowding conditions (10-25% confluence) and 24 hours later exposed to gemcitabine in a dose-dependent manner. They are imaged every 1-3 hours until control (vehicle) treated cells reach 100% confluence. This assay is not confounded by the fact that the time required for each cell line to reach 100% confluence may be very different (as the cell lines have different doubling times). A dose response effect of gemcitabine on cell growth for 16 pancreatic cancer cell lines is shown in FIGS. 20B, 3, 31A-31C and 28, where the range of previous studies is also shown. […] Similar responses to gemcitabine were found in liver cancer cell lines (Huh7 and FOCUS) and untransformed (HEK293) cell lines (FIGS. 3, 31A-31C).
as §2, with “Kinetic Cell growth assay. The” for “The”, “(2-4X103” for “(2-4×10^3”, “15-20X103” for “15-20×10^3”, “Incucyte™” for “Incucyte”

[6] = Homo sapiens, high density, read-out: High density (EC50, nM) 02.13-WT
[7] = Homo sapiens, low density, read-out: Low density (EC50, nM) 02.13-WT
[8] = Homo sapiens, high density, read-out: High density (EC50, nM) 02.13-YAPS6A
[9] = Homo sapiens, low density, read-out: Low density (EC50, nM) 02.13-YAPS6A

Structure (SMILES)	Efficacy in inhibiting cell growth when the Hippo pathway was inhibited [4]	Substrate of ABCG2 (ABCG2)	Efficacy in inhibiting cell growth when the Hippo pathway was not inhibited (Panc02.13 cells)	other results
N.N.[Cl][Pt][Cl] [Cisplatin]	–	–	–	EC50 ([1]; high density, read-out: High density (EC50, nM) 02.13-WT): > 10000 nM; EC50 ([1]; low density, read-out: Low density (EC50, nM) 02.13-WT): > 10000 nM; EC50 ([2]; high density, read-out: High density (EC50, nM) 02.13-YAPS6A): > 10000 nM; EC50 ([2]; low density, read-out: Low density (EC50, nM) 02.13-YAPS6A): > 10000 nM; % TGI dependence on YAP activity [3]: not affected by YAP activity
CC[C@@]1(O)C(=O)OCc2c1cc1n(c2=O)Cc2cc3c(CN(C)C)c(O)ccc3nc2-1 [topotecan]	increased efficacy in inhibiting cell growth	substrates of ABCG2	–	–
COc1cccc2c1C(=O)c1c(O)c3c(c(O)c1C2=O)C[C@@](O)(C(=O)CO)C[C@@H]3O[C@H]1C[C@H](N)[C@@H](O)[C@H](C)O1 [epirubicin]	increased efficacy in inhibiting cell growth	substrates of ABCG2	efficacious in inhibiting cell growth	–
Nc1nc(Cl)nc2c1ncn2[C@H]1C[C@H](O)[C@@H](CO)O1 [cladribine]	increased efficacy in inhibiting cell growth; also recorded: particularly significant inhibitory activity	substrates of ABCG2	–	–
COc1cc([C@@H]2c3cc4c(cc3[C@@H](O[C@@H]3O[C@@H]5CO[C@@H](C)O[C@H]5[C@H](O)[C@H]3O)[C@H]3COC(=O)[C@H]23)OCO4)cc(OC)c1O [Etoposide]	particularly significant inhibitory activity	substrates of ABCG2	–	EC50 [1, 6]: 2600 nM; EC50 [1, 7]: 386 nM; EC50 [2, 8]: 942 nM; EC50 [2, 9]: 383 nM; Efficacy in inhibiting cell growth when the Hippo pathway was inhibited ([4]; listed as etopiside): increased efficacy in inhibiting cell growth
N.N.O=C([O-])C1(C(=O)[O-])CCC1.[Pt+2] [carboplatin]	–	–	–	% TGI dependence on YAP activity [3]: not affected by YAP activity
CCCCC(=O)OCC(=O)[C@]1(O)Cc2c(O)c3c(c(O)c2[C@@H](O[C@H]2C[C@H](NC(=O)C(F)(F)F)[C@H](O)[C@H](C)O2)C1)C(=O)c1c(OC)cccc1C3=O [valrubicin]	increased efficacy in inhibiting cell growth	–	efficacious in inhibiting cell growth	–
O=C1c2c(O)ccc(O)c2C(=O)c2c(NCCNCCO)ccc(NCCNCCO)c21 [mitoxantrone]	increased efficacy in inhibiting cell growth; also recorded: particularly significant inhibitory activity	substrates of ABCG2	–	–
COc1cccc2c1C(=O)c1c(O)c3c(c(O)c1C2=O)C[C@@](O)(C(=O)CO)C[C@@H]3O[C@H]1C[C@H](N)[C@H](O)[C@H](C)O1 [Doxorubicin]	increased efficacy in inhibiting cell growth	–	efficacious in inhibiting cell growth	EC50 [1, 6]: 386 nM; EC50 [1, 7]: 35 nM; EC50 [2, 8]: 133 nM; EC50 [2, 9]: 68 nM; Dependence of cellular response on cell crowding ([5]; seven PDAC cell lines, threshold >100 fold difference in EC50): dependent on cell crowding; Density dependence of efficacy ([5]; seven pancreatic cancer cell lines, sparse and dense conditions): density-dependent
COc1cccc2c1C(=O)c1c(O)c3c(c(O)c1C2=O)C[C@@](O)(C(C)=O)C[C@@H]3O[C@H]1C[C@H](N)[C@H](O)[C@H](C)O1 [daunorubicin]	increased efficacy in inhibiting cell growth	–	efficacious in inhibiting cell growth	–
COc1cc([C@@H]2c3cc4c(cc3[C@@H](O[C@@H]3O[C@@H]5CO[C@@H](c6cccs6)O[C@H]5[C@H](O)[C@H]3O)[C@H]3COC(=O)[C@H]23)OCO4)cc(OC)c1O [teniposide]	increased efficacy in inhibiting cell growth; also recorded: particularly significant inhibitory activity	substrates of ABCG2	–	–
CN(Cc1cnc2nc(N)nc(N)c2n1)c1ccc(C(=O)N[C@@H](CCC(=O)O)C(=O)O)cc1 [methotrexate]	increased efficacy in inhibiting cell growth; also recorded: particularly significant inhibitory activity	substrates of ABCG2	–	–
